We go through 1 molecule from patent US20090227606A1, “Methods for Preventing or Treating Acute and Chronic Pain” (priority 2006, published 2009).

Entries after “also recorded” stand apart in the source; their conditions may differ.

The test system of assay [1] is MIP-2 (CXCL2). Put plainly: ELISA of MIP-2 release from cultured astrocytes. Type of assay: cell-based, rat. As to conditions: seven days, LPS 1 μg/ml; propentofylline 1000 μM; db-cAMP 250 μM. The procedure: (§1) After approximately 14 days (2 days after subplating into plates, DIV 14) astrocytes had formed a confluent monolayer. […] Phase contrast microscopy was then carried out in order to assess the morphology of cells after the various treatments. Length of astrocyte processes was quantified by measuring all processes in 2-3 phase contrast images/group by an independent observer, blinded to the treatment groups using Image J v1.34s (National Institutes of Health, Bethesda, Md.).
Standard ELISA was performed for quantitative determination of MCP-1 and MIP-2 protein in cell culture supernatant. Assays were carried out according to the manufacturer's specifications (Biosource, Camarillo, Calif.) using the sandwich enzyme immunoassay procedure. Optical density at 450 nm was obtained using the MRX Revelations program (Dynex Technologies, Chantilly, Va.) and relative protein concentrations were determined by comparing samples to the standard curve generated.
On the technique in general: ELISA stands for enzyme-linked immunosorbent assay.

Assay [2] concerns cAMP. Description: cAMP levels in treated astrocytes, radio-receptor competition assay. Format: cell-based, rat. The settings on record: days 3 and 7. The procedure: Subsequently, cells were harvested and boiled for 3 minutes followed by high-speed (8,000×g) centrifugation. Fifty microliters of the resultant supernatant (total of 300 μl) was used to determine cAMP levels in the competition assay. cAMP levels were measured using a radio-receptor competition assay. In brief, [^3H] cAMP was used in competition for a cAMP binding protein (PKA) against known concentrations of non-radiolabeled cAMP, followed by determination of the unknowns. The reaction was allowed to proceed for 2 hours at 4° C. Charcoal was used to remove excess unbound cAMP. Finally, samples were counted in 5 ml Liquiscint™ (National Diagnostics, Atlanta, Ga.).
For orientation: Cyclic AMP is a second messenger, typically raised through Gs and lowered through Gi signalling.

In assay [3] the test system is primary cultured astrocytes. Put plainly: Astrocyte morphology and process length, phase contrast microscopy. Type of assay: cell-based, rat. The settings on record: 3 days or 7 days of treatment, phase contrast microscopy. As for the experimental part: Astrocyte cultures were prepared from the cortices of neonatal rats (1-3 days old) using the Worthington Papain Dissociation System (Worthington Biochemical Corporation, Lakewood, N.J.) according to the method of Huettner and Baughman (1986. J. Neurosci. 6:3044-3060). Briefly, cortices of neonatal rats were dissected, treated with papain (20 U/ml), dissociated by trituration and plated in 75 cm^2 flasks in Dulbecco's modified Eagle's medium (DMEM) supplemented with 10% charcoal-stripped fetal bovine serum (FBS), 1% GlutaMax and 1% penicillin/streptomycin (P/S, 100 U/ml penicillin, 100 μg/ml streptomycin, P/S). Cells were fed twice weekly until they reached confluence (Day in vitro, DIV 10-12) at which point they were mechanically shaken for 1 hr on an orbital shaker to remove any remaining oligodendrocytes and microglia. Subsequently, cultures were treated with trypsin for 30 minutes at 37° C. and re-plated into 6 or 12-well dishes at a density of about 3.0×10^4 cells/cm^2. Resultant cultures were greater than 95% astrocytic as determined by GFAP immunostaining.
as §1

Assay [4] relates to adenosine transport. As to conditions: literature; cited from earlier work.
The subject of assay [5] is GLAST. Put plainly: DsRed-GLAST-positive puncta in mouse spinal cord dorsal horn. Type of assay: in vivo. The procedure:
With these in vivo data collected, further experiments were performed in the transgenic mice to more clearly define the effects of propentofylline treatment on GLT-1 and GLAST in the spinal cord. As discussed above, following in vivo testing, mice were transcardially perfused and tissue was fixed with paraformaldehyde. Lumbar spinal cord sections were identified and post-fixed in paraformaldehyde. After one week in sucrose to prevent freeze fracture, spinal cord segments were frozen in dry ice, mounted and prepared with cryostat sectioning. Sections were then subjected to immunohistochemical analysis. […] In order to quantitate the relative number of eGFP (marker for GLT-1) or DsRed (marker for GLAST) puncta in each spinal cord dorsal horn, images using a fluorescence microscope were taken with a Q-Fire cooled camera (397 ms exposure). […] An observer blind to the treatment groups was used to count the relative number of GLT-1 or GLAST positive puncta in the ipsilateral (injured) dorsal horn versus the contralateral (non-injured) dorsal horn. […]
As described previously with rats, mice were transcardially perfused with 0.1 M PBS (phosphate-buffered saline), pH 7.4, followed by 4%-paraformaldehyde in PBS on day 12 post-L5 spinal nerve transection. […] The sections were examined with a fluorescence microscope, and images were captured with a Q-Fire cooled camera. […]

Consider `CCCn1cnc2c1c(=O)n(CCCCC(C)=O)c(=O)n2C` [propentofylline], for which, in assay [1], the “LPS-induced MIP-2 (CXCL2) release” value is reported as “reversed by co-treatment with propentofylline; also recorded: significantly attenuated”. In assay [2], the “relative cAMP/db-cAMP levels” value is reported as “did not lead to elevation in cAMP at 3 or 7 days; also recorded: did not enhance cAMP activity”. In assay [3], the astrocyte morphology entry is given as “dose-dependent shift from a flat, polygonal shape to a stellate, process-bearing shape”. Also, the adenosine transport result in assay [4] is listed as “inhibit adenosine transport”. In assay [5] (L5/propentofylline vs L5/saline group, day 12), the “DsRed-GLAST-positive puncta in injured mice” value is listed as “significantly enhanced the number of DsRed-GLAST-positive puncta; also recorded: increased the levels back to that seen in the contralateral side”. Further, the “DsRed-GLAST expression in sham mice” value in assay [5] (sham/propentofylline group) is given as “unaffected”.
